Data: patent US20210169080A1, “HETEROCYCLE DERIVATIVES AS PESTICIDES” (Bayer Aktiengesellschaft, priority 2018, published 2021)

Key:
[1] = test system: Myzus persicae; assay: Myzus persicae oral test; type: in vivo; conditions: 4 ppm, oral uptake through parafilm, after 5 days
Procedure: [table] To produce a suitable active compound formulation, 1 part by weight of active compound is dissolved with the stated parts by weight of solvent and made up to the desired concentration with water. 50 μl of the active compound formulation are transferred into microtitre plates and made up to a final volume of 200 μl with 150 μl of IPL41 insect medium (33%+15% sugar). Subsequently, the plates are sealed with parafilm, which a mixed population of green peach aphids (Myzus persicae) within a second microtitre plate is able to puncture and imbibe the solution. After 5 days, the efficacy in % is determined. 100% means that all the aphids have been killed; 0% means that no aphids have been killed.

[2] = test system: Spodoptera frugiperda; assay: Spodoptera frugiperda spray test; type: in vivo; conditions: 100 g/ha, sprayed maize leaf discs, after 7 days
Procedure: (§1) [table] To produce a suitable active compound formulation, 1 part by weight of active compound is dissolved with the specified parts by weight of solvent and made up to the desired concentration with water containing an emulsifier concentration of 1000 ppm. To produce further test concentrations, the formulation is diluted with emulsifier-containing water. Leaf discs of maize (Zea mays) are sprayed with an active compound formulation of the desired concentration and, after drying, populated with caterpillars of the fall armyworm (Spodoptera frugiperda). After 7 days, the efficacy in % is determined. 100% means that all the caterpillars have been killed; 0% means that no caterpillar has been killed.

[3] = test system: Phaedon cochleariae; assay: Phaedon cochleariae spray test; type: in vivo; conditions: 100 g/ha, sprayed Chinese cabbage leaf discs, after 7 days
Procedure: as §1, with “water. Discs” for “water. Leaf discs”, “of Chinese cabbage leaves (Brassica pekinensis)” for “of maize (Zea mays)”, “with larvae” for “with caterpillars”, “the mustard beetle (Phaedon cochleariae).” for “the fall armyworm (Spodoptera frugiperda).”, “the beetle larvae” for “the caterpillars”, “no beetle larvae have” for “no caterpillar has”

[4] = test system: Ctenocephalides felis; assay: Ctenocephalides felis oral test; type: in vivo; conditions: 100 ppm in citrated cattle blood, adult cat fleas, after 2 days
Procedure: Solvent: dimethyl sulfoxide To produce a suitable active compound formulation, 10 mg of active compound are mixed with 0.5 ml of dimethyl sulfoxide. Dilution with citrated cattle blood gives the desired concentration. About 20 unfed adult cat fleas (Ctenocephalides felis) are placed into a chamber which is closed at the top and bottom with gauze. A metal cylinder whose bottom end is closed with parafilm is placed onto the chamber. The cylinder contains the blood/active compound formulation, which can be imbibed by the fleas through the parafilm membrane. After 2 days, the kill in % is determined. 100% means that all of the fleas have been killed; 0% means that none of the fleas have been killed.

[5] = log P by reversed-phase HPLC (EEC Directive 79/831 Annex V.A8), acidic method; type: physicochemical; conditions: HPLC on reversed-phase C18, acidic range, formic acid in water/acetonitrile; for chromatographic logP: reversed-phase C18 HPLC column
Procedure: The log P values were determined according to EEC Directive 79/831 Annex V.A8 by HPLC (high-performance liquid chromatography) on a reversed-phase column (C18) using the following methods: ^[a] […] Calibration was carried out using a homologous series of straight-chain alkan-2-ones (having 3 to 16 carbon atoms) with known log P values. The values between successive alkanones are determined by linear regression.

[6] = test system: Myzus persicae; assay: Myzus persicae spray test; type: in vivo; conditions: 100 g/ha, sprayed Chinese cabbage leaf discs, after 5 days
Procedure: as §1, with “Discs” for “Leaf discs”, “Chinese cabbage leaves (Brassica pekinensis) infested by all stages of the green peach aphid (Myzus persicae)” for “maize (Zea mays)”, “concentration.” for “concentration and, after drying, populated with caterpillars of the fall armyworm (Spodoptera frugiperda).”, “5” for “7”, “aphids” for “caterpillars”, “aphids have” for “caterpillar has”

[7] = test system: Ctenocephalides felis; assay: Ctenocephalides felis in vitro contact test with adult cat fleas; type: in vivo; conditions: application rate 5 μg/cm^2 (=500 g/ha), after 48 h
Procedure: For the coating of the test tubes, 9 mg of active compound are first dissolved in 1 ml of acetone p.a. and then diluted to the desired concentration with acetone p.a. 250 μl of the solution are distributed homogeneously on the inner walls and the base of a 25 ml glass tube by turning and rocking on an orbital shaker (rocking rotation at 30 rpm for 2 h). With 900 ppm of active compound solution and internal surface area 44.7 cm^2, given homogeneous distribution, an area-based dose of 5 μg/cm^2 is achieved. After the solvent has evaporated off, the tubes are populated with 5-10 adult cat fleas (Ctenocephalides felis), sealed with a perforated plastic lid and incubated in a horizontal position at room temperature and ambient humidity. After 48 h, efficacy is determined. To this end, the tubes are stood upright and the fleas are knocked to the base of the tube. Fleas which remain motionless at the base or move in an uncoordinated manner are considered to be dead or moribund. […] 100% efficacy means that all the fleas were dead or moribund. 0% efficacy means that no fleas were harmed.

[8] = test system: Rhipicephalus sanguineus; assay: Rhipicephalus sanguineus in vitro contact test with adult brown dog ticks; type: in vivo; conditions: application rate 5 μg/cm^2 (=500 g ai/ha), after 48 h
Procedure: For the coating of the test tubes, 9 mg of active compound are first dissolved in 1 ml of acetone p.a. and then diluted to the desired concentration with acetone p.a. 250 μl of the solution are distributed homogeneously on the inner walls and the base of a 25 ml glass tube by turning and rocking on an orbital shaker (rocking rotation at 30 rpm for 2 h). With 900 ppm of active compound solution and internal surface area 44.7 cm^2, given homogeneous distribution, an area-based dose of 5 μg/cm^2 is achieved. After the solvent has evaporated off, the tubes are populated with 5-10 adult dog ticks (Rhipicephalus sanguineus), sealed with a perforated plastic lid and incubated in a horizontal position in the dark at room temperature and ambient humidity. After 48 h, efficacy is determined. To this end, the ticks are knocked to the base of the tube and incubated on a hotplate at 45-50° C. for not more than 5 min. Ticks which remain motionless on the base or move in such an uncoordinated manner that they are unable to deliberately avoid the heat by climbing upwards are considered to be dead or moribund. […] An efficacy of 100% means that all the ticks were dead or moribund. 0% efficacy means that none of the ticks were harmed.

[9] = test system: Boophilus microplus; assay: Boophilus microplus injection test; type: in vivo; conditions: 20 μg/animal injected into abdomen of engorged adult female cattle ticks, assessed after 7 days
Procedure: Solvent: dimethyl sulfoxide To produce a suitable active compound formulation, 10 mg of active compound are mixed with 0.5 ml of solvent and the concentrate is diluted to the desired concentration with solvent. 1 μl of the active compound solution is injected into the abdomen of 5 engorged adult female cattle ticks (Boophilus microplus). The animals are transferred into dishes and kept in a climate-controlled room. The activity is assessed after 7 days by laying of fertile eggs. Eggs which are not visibly fertile are stored in a climate-controlled cabinet until the larvae hatch after about 42 days. An efficacy of 100% means that none of the ticks has laid any fertile eggs; 0% means that all the eggs are fertile.

[10] = test system: Diabrotica balteata; assay: Diabrotica balteata spray test; type: in vivo; conditions: 160 μg/cavity, germinated wheat corns infested with beetle larvae, after 7 days
Procedure: [table] To produce a suitable active compound formulation, 1 part by weight of active compound is dissolved with the specified parts by weight of solvent and made up to the desired concentration with water containing an emulsifier concentration of 1000 ppm. To produce further test concentrations, the formulation is diluted with emulsifier-containing water. Pre-swollen wheat corns (Triticum aestivum) are incubated for one day in a multiwell plate filled with agar and a little water (5 seed corns per cavity). The germinated wheat corns are sprayed with an active compound formulation of the desired concentration. Subsequently, each cavity is infested with 10-20 Diabrotica balteata beetle larvae. After 7 days, the efficacy in % is determined. 100% means that all wheat plants have grown as in the untreated uninfested control; 0% means that no wheat plant has grown.

| SMILES | chromatographic logP [5] | log P (acidic) [5] | efficacy (aphids killed) [1] [%] | efficacy (caterpillars killed) [2] [%] | efficacy (beetle larvae killed) [3] [%] | efficacy (kill in %) [4] [%] | efficacy (aphids killed) [6] [%] | efficacy (fleas dead or moribund) [7] [%] | efficacy (ticks dead or moribund) [8] [%] | efficacy (no laying of fertile eggs) [9] [%] | efficacy (wheat plants grown as in uninfested control) [10] [%] |
| --- | --- | --- | --- | --- | --- | --- | --- | --- | --- | --- | --- |
| CCS(=O)(=O)c1c(-c2nc3cc(S(=O)(=O)C(F)(F)F)ccc3o2)nc2cc(C3(C#N)CC3)ccn12 [Example 1-1, 1-[3-(Ethylsulfonyl)-2-{5-[(trifluoromethyl)sulfonyl]-1,3-benzoxazol-2-yl}imidazo-[1,2-a]pyridin-7-yl]cyclopropanecarbonitrile] | 3.18 |  | 100 | 100 | 100 | 95 |  |  |  |  |  |
| CCS(=O)(=O)c1c(-c2nc3cc([S+]([O-])C(F)(F)F)ccc3o2)nc2cc(C3(C#N)CC3)ccn12 (stereo not shown) [Example 1-2, 1-[3-(ethylsulfonyl)-2-{5-[(trifluoromethyl)sulfinyl]-1,3-benzoxazol-2-yl}imidazo[1,2-a]pyridin-7-yl]cyclo-propanecarbonitrile] | 2.67 |  | 100 | 100 | 100 | 100 | 100 |  |  |  |  |
| CCS(=O)(=O)c1c(-c2nc3cc(SC(F)(F)F)ccc3o2)nc2cc(C3(C#N)CC3)ccn12 [Example 1-3, 1-[3-(Ethylsulfonyl)-2-{5-[(trifluoromethyl)sulfanyl]-1,3-benzoxazol-2-yl}imidazo-[1,2-a]pyridin-7-yl]cyclopropanecarbonitrile] | 3.63 |  |  | 100 | 100 | 100 |  | 100 | 80 | 90 |  |

The next lines start with results.

| chromatographic logP [5] | log P (acidic) [5] | SMILES | efficacy (aphids killed) [1] [%] | efficacy (caterpillars killed) [2] [%] | efficacy (beetle larvae killed) [3] [%] | efficacy (kill in %) [4] [%] | efficacy (aphids killed) [6] [%] | efficacy (fleas dead or moribund) [7] [%] | efficacy (ticks dead or moribund) [8] [%] | efficacy (no laying of fertile eggs) [9] [%] | efficacy (wheat plants grown as in uninfested control) [10] [%] |
| --- | --- | --- | --- | --- | --- | --- | --- | --- | --- | --- | --- |
| 3.22 |  | CCS(=O)(=O)c1c(-c2nc3cc(C(F)(F)F)ccc3o2)nc2cc(C3(C#N)CC3)ccn12 [Example 1-4] |  | 100 | 100 |  |  |  |  |  |  |
| 3.29 |  | CCS(=O)(=O)c1c(-c2nc3cc(OC(F)(F)F)ccc3o2)nc2cc(C3(C#N)CC3)ccn12 [Example 1-5, 1-[3-Ethylsulfonyl-2-[5-(trifluoromethoxy)-1,3-benzoxazol-2-yl]imidazo[1,2-a]pyridin-7-yl]cyclopropanecarbonitrile] |  | 83 |  |  |  |  |  |  | 100 |
|  | 3.68 | CCS(=O)(=O)c1c(-c2nc3cc(C(F)(F)C(F)(F)F)ccc3o2)nc2cc(C3(C#N)CC3)ccn12 [Example 1-6, 1-[3-Ethylsulfonyl-2-[5-(l, 1,2,2,2-pentafluoroethyl)-1,3-benzoxazol-2-yl]imidazo [1,2-a]pyridin-7-yl]cyclopropanecarbonitrile] |  |  |  |  |  |  |  |  |  |
